In US4250094A, “1-(Aminoalkyl) substituted-6-phenyl-4H-s-triazolo[4,3-a][1,4]benzodiazepines” (priority 1979, dated 1981):
Entries after “also recorded” stand apart in the source; their conditions may differ. Structures can show the parent of a compound that is named as a salt.

Columns and labels:
yohimbine = type: in vivo, mice; settings: Table VII
Procedure: Ten male CF mice, 18-22 g., were injected with the anti-depressant and 30 minutes later with 30 mg. of yohimbine hydrochloride (YCl) in saline solution. After two hours, the LD50 are determined.

oxotremorine [1] = type: in vivo, mice; settings: Table VII
Procedure: The present compounds were tested as follows. […] The lowering of the body temperature was measured rectally with an electronic thermometer, before and 30 minutes after drug administration. After the drug administration the mice were kept at 19° C. in cages. A four degree difference between the control mice (oxotremorine alone) and the treated mice (oxotremorine and test compound) was used to indicate the antagonistic action of the test compound.

apomorphine = settings: Table VII
oxotremorine [2] = assay: Hypothermic tests with oxotremorine: body temperature change; type: in vivo, mice; settings: for Body Temperature °F. Change From Vehicle Control After 15 Minutes / Body Temperature °F. Change From Vehicle Control After 30 Minutes / Body Temperature °F. Change From Vehicle Control After 60 Minutes / Body Temperature °F. Change From Vehicle Control After 90 Minutes: ip, 0.5 h; for antagonism of oxotremorine temperature decrease: oxotremorine 0.6 mg./kg., in words
Source text: Hypothermic tests with oxotermorine: [1-(4-pyrrolidino-2-butynyl)-2-pyrrolidinone].

oxotremorine [3] = settings: in words, cited from earlier work; for block of oxotremorine hypothermic response: mice
nicotine = settings: control (untreated) mice, nicotine salicylate 2 mg./kg.
strychnine = type: in vivo; settings: 3 mg./kg. intraperitoneally
Procedure: The test consists in orally administering into groups of 6 mice the test compound, and 30 minutes later 3 mg./kg. strychnine sulfate intraperitoneally. The survivors after 4 hours reflect the activity of the compound as a muscle relaxant and antispasmodic.

[4] = Lethality of yohimbine hydrochloride alone; type: in vivo; settings: mice, 30 mg./kg., in words
Procedure: After two hours, the LD50 are determined.

NCc1nnc2n1-c1ccc(Cl)cc1C(c1ccccc1)=NC2 [1-(Aminomethyl)-8-chloro-6-phenyl-4H-s-triazolo[4,3-a][1,4]benzodiazepine]
YO (Yohimbine test) (yohimbine): 35.4 | Oxo (oxotremorine test) (oxotremorine [1]): 29.7

CN(C)Cc1nnc2n1-c1ccc(Cl)cc1C(c1ccccc1Cl)=NC2 [8-Chloro-1-[(dimethylamino)methyl]-6-(o-chlorophenyl)-4H-s-triazolo[4,3-a][1,4]benzodiazepine]
Ap (Apomorphine test) (apomorphine): 17.8

CN(C)CCC=C1c2ccccc2CCc2ccccc21 [Amitriptyline]
Body Temperature °F. Change From Vehicle Control After 15 Minutes (oxotremorine [2]; 25 mg/kg): +0.7 °F. | Body Temperature °F. Change From Vehicle Control After 30 Minutes (oxotremorine [2]; 25 mg/kg): - 2.4 °F. | Body Temperature °F. Change From Vehicle Control After 60 Minutes (oxotremorine [2]; 25 mg/kg): - 5.4 °F. | Body Temperature °F. Change From Vehicle Control After 90 Minutes (oxotremorine [2]; 25 mg/kg): - 6.8 °F.

CC(N)Cc1ccccc1 (stereo not shown) [Amphetamine]
Body Temperature °F. Change From Vehicle Control After 15 Minutes (oxotremorine [2]; 5 mg/kg): -1.5 °F. | Body Temperature °F. Change From Vehicle Control After 30 Minutes (oxotremorine [2]; 5 mg/kg): - 4.3 °F. | Body Temperature °F. Change From Vehicle Control After 60 Minutes (oxotremorine [2]; 5 mg/kg): - 4.4 °F. | Body Temperature °F. Change From Vehicle Control After 90 Minutes (oxotremorine [2]; 5 mg/kg): - 2.2 °F.

CN1[C@@H]2CC[C@H]1C[C@@H](OC(=O)C(CO)c1ccccc1)C2 (stereo partly shown) [Atropine]
block of oxotremorine hypothermic response (oxotremorine [3]): blocked

CNCCCN1c2ccccc2CCc2ccccc21 [Desipramine]
Body Temperature °F. Change From Vehicle Control After 15 Minutes (oxotremorine [2]; 25 mg/kg): -3.5 °F. | Body Temperature °F. Change From Vehicle Control After 30 Minutes (oxotremorine [2]; 25 mg/kg): - 3.5 °F. | Body Temperature °F. Change From Vehicle Control After 60 Minutes (oxotremorine [2]; 25 mg/kg): - 4.1 °F. | Body Temperature °F. Change From Vehicle Control After 90 Minutes (oxotremorine [2]; 25 mg/kg): - 3.6 °F. | antagonism of oxotremorine temperature decrease (oxotremorine [2]; mice): antagonized

CN(C)CCC=C1c2ccccc2COc2ccccc21 [Doxepine]
Body Temperature °F. Change From Vehicle Control After 15 Minutes (oxotremorine [2]; 25 mg/kg): -2.3 °F. | Body Temperature °F. Change From Vehicle Control After 30 Minutes (oxotremorine [2]; 25 mg/kg): - 7.1 °F. | Body Temperature °F. Change From Vehicle Control After 60 Minutes (oxotremorine [2]; 25 mg/kg): -11.0 °F. | Body Temperature °F. Change From Vehicle Control After 90 Minutes (oxotremorine [2]; 25 mg/kg): -12.3 °F. | antagonism of oxotremorine temperature decrease (oxotremorine [2]; mice): antagonized

CN(C)CCCN1c2ccccc2CCc2ccccc21 [Imipramine]
Body Temperature °F. Change From Vehicle Control After 15 Minutes (oxotremorine [2]; 25 mg/kg): -0.4 °F. | Body Temperature °F. Change From Vehicle Control After 30 Minutes (oxotremorine [2]; 25 mg/kg): - 3.3 °F. | Body Temperature °F. Change From Vehicle Control After 60 Minutes (oxotremorine [2]; 25 mg/kg): - 5.6 °F. | Body Temperature °F. Change From Vehicle Control After 90 Minutes (oxotremorine [2]; 25 mg/kg): - 6.4 °F. | antagonism of oxotremorine temperature decrease (oxotremorine [2]; mice): antagonized | block of oxotremorine hypothermic response (oxotremorine [3]): blocked

O=C1CCCN1CC#CCN1CCCC1 [Oxotremorine, 1-(4-pyrrolidino-2-butynyl)-2-pyrrolidinone]
decrease of body temperature of a mouse (oxotremorine [2]; 0.6 mg./kg., mouse kept at room temperature): about 13 ° F. | time of peak hypothermia after administration (oxotremorine [2]; mice): 60 min | hypothermic response in mice (oxotremorine [3]): produces hypothermic responses in mice

CN1CCc2cccc3c2[C@H]1Cc1ccc(O)c(O)c1-3 [apomorphine]
hypothermic response in mice (oxotremorine [3]): produces hypothermic responses in mice

CN1CCC[C@H]1c1cccnc1 [nicotine salicylate]
effect of nicotine salicylate in control mice (nicotine): running convulsions followed by (2) tonic extensor fits; followed by (3) death

O=C1C[C@@H]2OCC=C3CN4CC[C@]56c7ccccc7N1[C@H]5[C@H]2[C@H]3C[C@H]46 [strychnine sulfate]
lethality of strychnine sulfate in control mice (strychnine): routinely fatal to all the control mice

COc1cc2c(cc1OC)C1CC(=O)C(CC(C)C)CN1CC2 (stereo not shown) [tetrabenazine]
hypothermic response in mice (oxotremorine [3]): produces hypothermic responses in mice

COC(=O)[C@@H]1[C@H]2C[C@H]3c4[nH]c5ccccc5c4CCN3C[C@@H]2CC[C@@H]1O [yohimbine hydrochloride]
lethality of yohimbine hydrochloride alone [4]: non-lethal | lethality of yohimbine hydrochloride alone ([4]; listed as YCl): no death; also recorded: No mice or only one mouse is killed
